The values below come from patent US8124610B2, “Sodium channel inhibitors” (Icagen Inc., priority 2007, dated 2012).

Molecules are shown by their SMILES. A value given as a limit tells only on which side of the number the result lay.

For the assay, the target named is T1, hSCN9A (Homo sapiens, UniProt Q15858).
T1 construct: expressed in transfected cells
Kind of assay: Whole-cell patch-clamp electrophysiology (conventional or PatchXpress), HEK cells expressing hSCN9A, estimated IC-50. It is filed as cell-based. Particulars: estimated IC-50, HEK cells expressing hSCN9A; class symbols or bounds; read-out: SCN9A EIC-50. Put shortly:
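Stably transfected HEK cells recorded by whole-cell voltage clamp (manual or PatchXpress) at 22–24 °C in pH 7.4 HEPES-buffered extracellular solution. Cells held at the empirically determined inactivation V1/2 after an 8 s prepulse, then stepped to 0 mV for 20 ms; % inhibition from current amplitude before vs after compound.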

T1 sequence (Q15858 whole entry): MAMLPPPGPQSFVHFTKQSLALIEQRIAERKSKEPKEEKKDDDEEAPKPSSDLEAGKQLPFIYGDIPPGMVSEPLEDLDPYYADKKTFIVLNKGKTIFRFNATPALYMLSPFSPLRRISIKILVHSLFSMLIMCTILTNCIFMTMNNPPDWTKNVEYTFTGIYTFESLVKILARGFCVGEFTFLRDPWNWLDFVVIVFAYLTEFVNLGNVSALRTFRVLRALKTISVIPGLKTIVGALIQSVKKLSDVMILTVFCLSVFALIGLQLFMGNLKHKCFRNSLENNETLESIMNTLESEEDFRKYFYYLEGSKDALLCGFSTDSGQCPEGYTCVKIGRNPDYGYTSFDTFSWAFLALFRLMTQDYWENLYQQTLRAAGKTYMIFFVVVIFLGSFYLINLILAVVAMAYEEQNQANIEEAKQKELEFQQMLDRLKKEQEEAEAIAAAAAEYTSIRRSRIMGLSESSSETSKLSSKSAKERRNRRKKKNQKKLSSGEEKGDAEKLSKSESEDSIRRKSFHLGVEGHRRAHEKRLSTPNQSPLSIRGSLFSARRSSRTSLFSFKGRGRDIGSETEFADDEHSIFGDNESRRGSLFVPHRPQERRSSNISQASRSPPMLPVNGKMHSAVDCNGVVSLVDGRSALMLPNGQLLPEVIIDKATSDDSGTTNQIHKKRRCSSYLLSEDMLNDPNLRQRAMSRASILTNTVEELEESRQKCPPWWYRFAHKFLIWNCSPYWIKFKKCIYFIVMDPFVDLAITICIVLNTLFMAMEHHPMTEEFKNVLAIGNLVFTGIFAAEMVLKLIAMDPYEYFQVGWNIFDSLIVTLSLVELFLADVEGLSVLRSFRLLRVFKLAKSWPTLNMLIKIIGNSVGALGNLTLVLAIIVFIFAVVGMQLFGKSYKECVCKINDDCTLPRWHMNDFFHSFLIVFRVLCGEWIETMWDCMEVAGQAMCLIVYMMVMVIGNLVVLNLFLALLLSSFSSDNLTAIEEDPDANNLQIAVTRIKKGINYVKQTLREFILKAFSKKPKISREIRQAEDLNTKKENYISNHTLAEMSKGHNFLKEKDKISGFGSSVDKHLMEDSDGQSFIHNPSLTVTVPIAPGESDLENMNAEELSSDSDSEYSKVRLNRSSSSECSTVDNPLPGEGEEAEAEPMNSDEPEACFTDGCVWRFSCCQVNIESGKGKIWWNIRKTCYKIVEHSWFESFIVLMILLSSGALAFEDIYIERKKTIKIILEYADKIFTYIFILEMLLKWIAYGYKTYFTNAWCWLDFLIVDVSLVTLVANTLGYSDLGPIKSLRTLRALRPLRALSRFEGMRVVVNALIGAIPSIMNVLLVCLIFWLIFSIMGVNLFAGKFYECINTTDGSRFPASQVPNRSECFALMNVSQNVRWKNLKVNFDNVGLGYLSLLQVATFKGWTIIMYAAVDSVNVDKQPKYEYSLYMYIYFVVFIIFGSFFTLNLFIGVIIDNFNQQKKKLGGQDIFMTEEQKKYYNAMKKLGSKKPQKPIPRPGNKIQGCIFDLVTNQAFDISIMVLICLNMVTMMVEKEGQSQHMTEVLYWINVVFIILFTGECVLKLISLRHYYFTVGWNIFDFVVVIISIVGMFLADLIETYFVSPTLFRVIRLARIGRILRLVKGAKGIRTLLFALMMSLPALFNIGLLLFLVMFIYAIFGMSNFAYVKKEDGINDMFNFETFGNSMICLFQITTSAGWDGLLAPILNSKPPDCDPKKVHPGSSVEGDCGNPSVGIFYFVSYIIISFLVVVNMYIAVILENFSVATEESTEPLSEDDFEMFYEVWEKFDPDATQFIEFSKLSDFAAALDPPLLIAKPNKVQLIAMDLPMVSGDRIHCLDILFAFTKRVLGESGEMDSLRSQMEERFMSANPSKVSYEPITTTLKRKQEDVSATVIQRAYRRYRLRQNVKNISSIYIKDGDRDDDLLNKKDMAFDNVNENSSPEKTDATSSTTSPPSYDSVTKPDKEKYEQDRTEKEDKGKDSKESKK

As for `COc1ccc(Cn2ccc(Nc3ccc(S(=O)(=O)Nc4nccs4)c(F)c3)n2)cc1` [Compound 224, 2-fluoro-4-(1-(4-methoxybenzyl)-1H-pyrazol-3-ylamino)-N-(thiazol-2-yl)benzenesulfonamide], the IC50 was < 2000 nM. For the compound `Cc1nn(Cc2ccc(Cl)cc2)c(C)c1Nc1ccc(S(=O)(=O)Nc2nccs2)c(F)c1` [Compound 225, 4-(1-(4-chlorobenzyl)-3,5-dimethyl-1H-pyrazol-4-ylamino)-2-fluoro-N-(thiazol-2-yl)benzenesulfonamide], the IC50 is 2000 to 10000 nM. `O=S(=O)(Nc1nccs1)c1ccc(Nc2ccn(Cc3ccc(F)cc3)n2)c(F)c1` [Compound 226, 3-fluoro-4-(1-(4-fluorobenzyl)-1H-pyrazol-3-ylamino)-N-(thiazol-2-yl)benzenesulfonamide]: the IC50 is < 2000 nM.

Consider `O=S(=O)(Nc1nccs1)c1ccc(Nc2cnn(Cc3ccc(Cl)c(C(F)(F)F)c3)c2)cc1F` [Compound 229, 4-(1-(4-chloro-3-(trifluoromethyl)benzyl)-1H-pyrazol-4-ylamino)-2-fluoro-N-(thiazol-2-yl)benzenesulfonamide], for which the IC50 is < 2000 nM. Regarding `COc1ccc(OC(F)(F)F)cc1Cn1cc(Nc2ccc(S(=O)(=O)Nc3nccs3)c(F)c2)cn1` [Compound 230, 2-fluoro-4-(1-(2-methoxy-5-(trifluoromethoxy)benzyl)-1H-pyrazol-4-ylamino)-N-(thiazol-2-yl)benzenesulfonamide], the IC50 was < 2000 nM. As to `O=S(=O)(Nc1nccs1)c1ccc(Nc2cnn(Cc3ccc(Cl)cc3)c2)cn1` [Compound 231, 5-(1-(4-chlorobenzyl)-1H-pyrazol-4-ylamino)-N-(thiazol-2-yl)pyridine-2-sulfonamide], the IC50 was 2000 to 10000 nM. For the compound `O=S(=O)(Nc1nncs1)c1ccc(Nc2ccn(Cc3ccc(Cl)cc3)n2)cc1F` [Compound 232, 4-(1-(4-chlorobenzyl)-1H-pyrazol-3-ylamino)-2-fluoro-N-(1,3,4-thiadiazol-2-yl)benzenesulfonamide], the IC50 was < 2000 nM. As to `Cc1cc(Nc2ccc(S(=O)(=O)Nc3nccs3)nc2)n(-c2ccccc2)n1` [Compound 234, 5-(3-methyl-1-phenyl-1H-pyrazol-5-ylamino)-N-(thiazol-2-yl)pyridine-2-sulfonamide], the IC50 is 2000 to 10000 nM. As for `Cc1cc(Nc2ccc(S(=O)(=O)Nc3nc(C)ns3)c(F)c2)n(-c2ccccc2)n1` [Compound 236, 2-fluoro-N-(3-methyl-1,2,4-thiadiazol-5-yl)-4-(3-methyl-1-phenyl-1H-pyrazol-5-ylamino)benzenesulfonamide], the figure is 2000 to 10000 nM.

For the compound `Cc1cc(Nc2ccc(S(=O)(=O)Nc3nnc(C)o3)c(F)c2)n(-c2ccccc2)n1` [Compound 237, 2-fluoro-N-(5-methyl-1,3,4-oxadiazol-2-yl)-4-(3-methyl-1-phenyl-1H-pyrazol-5-ylamino)benzenesulfonamide], the IC50 is 2000 to 10000 nM.

Regarding `Cc1cc(Nc2ccc(S(=O)(=O)Nc3nncs3)c(F)c2)n(-c2ccccc2)n1` [Compound 238, 2-fluoro-4-(3-methyl-1-phenyl-1H-pyrazol-5-ylamino)-N-(1,3,4-thiadiazol-2-yl)benzenesulfonamide], the IC50 is 2000 to 10000 nM.

As for `Cc1cc(Nc2ccc(S(=O)(=O)Nc3ncc(C)s3)c(F)c2)n(-c2ccccc2)n1` [Compound 239, 2-fluoro-4-(3-methyl-1-phenyl-1H-pyrazol-5-ylamino)-N-(5-methylthiazol-2-yl)benzenesulfonamide], the IC50 is 2000 to 10000 nM. For `Cc1cc(Nc2ccc(S(=O)(=O)Nc3ncns3)c(F)c2)n(-c2ccccc2)n1` [Compound 240, 2-fluoro-4-(3-methyl-1-phenyl-1H-pyrazol-5-ylamino)-N-(1,2,4-thiadiazol-5-yl)benzenesulfonamide] the value was 2000 to 10000 nM; for `Cc1cc(Nc2ccc(S(=O)(=O)Nc3nnc(-c4ccccc4)s3)c(F)c2)n(-c2ccccc2)n1` [Compound 241, 2-fluoro-4-(3-methyl-1-phenyl-1H-pyrazol-5-ylamino)-N-(5-phenyl-1,3,4-thiadiazol-2-yl)benzenesulfonamide], 2000 to 10000 nM. As for `O=S(=O)(Nc1nnc(C(F)(F)F)s1)c1ccc(Nc2ccn(Cc3ccc(Cl)cc3)n2)cc1F` [Compound 243, 4-(1-(4-chlorobenzyl)-1H-pyrazol-3-ylamino)-2-fluoro-N-(5-(trifluoromethyl)-1,3,4-thiadiazol-2-yl)benzenesulfonamide], the IC50 was 2000 to 10000 nM.

Consider `CCc1nnc(NS(=O)(=O)c2ccc(Nc3cc(C)nn3-c3ccccc3)cc2F)s1` [Compound 246, N-(5-ethyl-1,3,4-thiadiazol-2-yl)-2-fluoro-4-(3-methyl-1-phenyl-1H-pyrazol-5-ylamino)benzenesulfonamide], for which the IC50 is > 1000 nM.

Turning to `Cc1cc(Nc2ccc(S(=O)(=O)Nc3nnc(C)s3)c(F)c2)n(-c2ccccc2)n1` [Compound 247, 2-fluoro-N-(5-methyl-1,3,4-thiadiazol-2-yl)-4-(3-methyl-1-phenyl-1H-pyrazol-5-ylamino)benzenesulfonamide], the IC50 is > 1000 nM.

With `Cc1cc(Nc2ccc(S(=O)(=O)Nc3nnc(C(F)F)s3)c(F)c2)n(-c2ccccc2)n1` [Compound 248, N-(5-(difluoromethyl)-1,3,4-thiadiazol-2-yl)-2-fluoro-4-(3-methyl-1-phenyl-1H-pyrazol-5-ylamino)benzenesulfonamide], the IC50 is 2000 to 10000 nM. Turning to `COCc1nnc(NS(=O)(=O)c2ccc(Nc3cc(C)nn3-c3ccccc3)cc2F)s1` [Compound 249, 2-fluoro-N-(5-(methoxymethyl)-1,3,4-thiadiazol-2-yl)-4-(3-methyl-1-phenyl-1H-pyrazol-5-ylamino)benzenesulfonamide], the IC50 was > 1000 nM. For `Cc1cc(Nc2ccc(S(=O)(=O)Nc3nnc(C4CC4)s3)c(F)c2)n(-c2ccccc2)n1` [Compound 250, N-(5-cyclopropyl-1,3,4-thiadiazol-2-yl)-2-fluoro-4-(3-methyl-1-phenyl-1H-pyrazol-5-ylamino)benzenesulfonamide] the value was > 1000 nM.

With `Cc1nnc(NS(=O)(=O)c2ccc(Nc3ccn(Cc4ccc(Cl)cc4)n3)cc2F)s1` [Compound 251, 4-(1-(4-chlorobenzyl)-1H-pyrazol-3-ylamino)-2-fluoro-N-(5-methyl-1,3,4-thiadiazol-2-yl)benzenesulfonamide], the IC50 was > 1000 nM. As for `Cc1cc(Nc2ccc(S(=O)(=O)Nc3nnc(C(C)C)s3)c(F)c2)n(-c2ccccc2)n1` [Compound 252, 2-fluoro-N-(5-isopropyl-1,3,4-thiadiazol-2-yl)-4-(3-methyl-1-phenyl-1H-pyrazol-5-ylamino)benzenesulfonamide], the figure is > 1000 nM; as for `O=S(=O)(Nc1nnc(C2CC2)s1)c1ccc(Nc2ccn(Cc3ccc(Cl)cc3)n2)cc1F` [Compound 253, 4-(1-(4-chlorobenzyl)-1H-pyrazol-3-ylamino)-N-(5-cyclopropyl-1,3,4-thiadiazol-2-yl)-2-fluorobenzenesulfonamide], > 1000 nM; as for `COCc1nnc(NS(=O)(=O)c2ccc(Nc3ccn(Cc4ccc(Cl)cc4)n3)cc2F)s1` [Compound 254, 4-(1-(4-chlorobenzyl)-1H-pyrazol-3-ylamino)-2-fluoro-N-(5-(methoxymethyl)-1,3,4-thiadiazol-2-yl)benzenesulfonamide], > 1000 nM.
